Source: ChEMBL document CHEMBL5329225, “Solubilizer Tag Effect on PD-L1/Inhibitor Binding Properties for m-Terphenyl Derivatives” (ACS Med Chem Lett, 2024)
Active and inactive are the calls of the source. The calls are words filed in the database; no cut-off is given here.

Legend:
Jurkat [1] = test: Induction of T cell activation in human Jurkat T cells overexpressing PD-1 co-cultured with Chinese hamster CHO cells overexpressing PD-L1 assessed as increase in luciferase activity at 6.4 uM incubated for 6 hrs by Bio-GloTM reagent based immune checkpoint blockade assay; assay type: functional
Jurkat [2] = test: Induction of T cell activation in human Jurkat T cells overexpressing PD-1 co-cultured with Chinese hamster CHO cells overexpressing PD-L1 assessed as increase in luciferase activity at 1 uM incubated for 6 hrs by Bio-GloTM reagent based immune checkpoint blockade assay; assay type: functional
Jurkat [3] = test: Induction of T cell activation in human Jurkat T cells overexpressing PD-1 co-cultured with Chinese hamster CHO cells overexpressing PD-L1 assessed as increase in luciferase activity incubated for 6 hrs by Bio-GloTM reagent based immune checkpoint blockade assay; assay type: functional
[4] = Toxicity in human Jurkat T cells overexpressing PD-1 co-cultured with Chinese hamster CHO cells overexpressing PD-L1 at 0.01 to 100 uM; assay type: cell-based; details: dose 0.01-100 µM
[5] = target: Programmed cell death protein 1/Programmed cell death 1 ligand 1 (Homo sapiens, UniProt Q9NZQ7); test: Inhibition of human PD-1/PDL1 interaction incubated for 1 hr by HTRF assay; assay type: protein-complex assay
Programmed cell death protein 1/Programmed cell death 1 ligand 1, sequence (Q15116 whole entry): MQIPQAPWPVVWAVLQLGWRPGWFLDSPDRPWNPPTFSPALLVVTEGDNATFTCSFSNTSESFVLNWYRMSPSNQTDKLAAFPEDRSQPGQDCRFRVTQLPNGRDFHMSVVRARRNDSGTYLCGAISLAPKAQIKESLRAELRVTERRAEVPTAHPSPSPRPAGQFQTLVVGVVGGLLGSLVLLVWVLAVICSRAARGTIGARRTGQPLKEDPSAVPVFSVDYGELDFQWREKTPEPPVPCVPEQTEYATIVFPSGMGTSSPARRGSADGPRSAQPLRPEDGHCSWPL
Programmed cell death protein 1/Programmed cell death 1 ligand 1, sequence (Q9NZQ7 whole entry): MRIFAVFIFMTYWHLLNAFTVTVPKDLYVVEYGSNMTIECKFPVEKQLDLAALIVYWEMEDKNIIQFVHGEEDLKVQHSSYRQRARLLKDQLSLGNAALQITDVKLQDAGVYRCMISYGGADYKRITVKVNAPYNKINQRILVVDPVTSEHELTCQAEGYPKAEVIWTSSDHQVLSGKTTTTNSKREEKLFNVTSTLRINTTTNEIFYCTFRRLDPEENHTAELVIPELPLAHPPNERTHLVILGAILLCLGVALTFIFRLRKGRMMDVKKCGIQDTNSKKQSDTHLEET

SMILES	Activity (Jurkat [1])	Activity (Jurkat [2])	Activity (Jurkat [3])	Activity [4]	IC50 [5] [nM]
COc1cc(-c2cccc(-c3ccc4c(c3)OCCO4)c2Cl)ccc1CN1CCC(C(=O)NC(CO)(CO)CO)C1 (stereo not given)	inactive	inactive			
COc1cc(-c2cccc(-c3ccc4c(c3)OCCO4)c2Cl)ccc1CN1CCC(C(=O)NO)C1 (stereo not given)		inactive			
COc1cc(-c2cccc(-c3ccc4c(c3)OCCO4)c2Cl)ccc1CN1CCC(C(=O)NC(CO)CO)C1 (stereo not given)	Active	inactive	Dose-Dependent Effect	Toxic	
COc1cc(-c2cccc(-c3ccc4c(c3)OCCO4)c2Cl)ccc1CN1CCC(C(=O)NN(C)C)C1 (stereo not given)	Active		Dose-Dependent Effect	Toxic	
COc1cc(-c2cccc(-c3ccc4c(c3)OCCO4)c2Cl)ccc1CN1CCC(C(=O)NCCN)C1 (stereo not given)	inactive	inactive			
COc1cc(-c2cccc(-c3ccc4c(c3)OCCO4)c2Cl)ccc1CN1CCCC(C(=O)NC(CO)CO)C1 (stereo not given)					6
COc1cc(-c2cccc(-c3ccc4c(c3)OCCO4)c2Cl)ccc1CN1CCC(C(=O)NCCO)C1 (stereo not given)			Dose-Dependent Effect	Toxic	
